This assay deals with T1, human DGAT1 (Homo sapiens, UniProt O75907).
T1 construct: FLAG (N); made in house; host or cells: SF9 insect cells (pFastBac baculovirus); total cell membranes
T1 sequence (O75907 1-488): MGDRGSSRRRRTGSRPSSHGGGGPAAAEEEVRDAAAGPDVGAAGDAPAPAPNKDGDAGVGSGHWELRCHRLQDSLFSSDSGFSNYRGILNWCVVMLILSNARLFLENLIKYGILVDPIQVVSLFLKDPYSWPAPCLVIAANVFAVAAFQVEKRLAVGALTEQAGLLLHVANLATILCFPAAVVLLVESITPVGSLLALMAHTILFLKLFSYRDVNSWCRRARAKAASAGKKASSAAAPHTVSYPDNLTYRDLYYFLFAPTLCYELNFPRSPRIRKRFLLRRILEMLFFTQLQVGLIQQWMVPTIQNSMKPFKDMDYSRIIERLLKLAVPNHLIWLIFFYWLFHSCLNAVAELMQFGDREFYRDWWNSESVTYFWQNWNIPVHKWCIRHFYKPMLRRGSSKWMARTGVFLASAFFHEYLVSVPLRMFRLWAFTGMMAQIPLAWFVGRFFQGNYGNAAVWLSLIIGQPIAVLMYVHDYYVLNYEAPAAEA
The experiment in a line: Inhibition of DGAT1 activity, FlashPlate assay with DGAT1 membrane preparations and substrate micelles. It counts as biochemical. The conditions noted are these: pIC50 = -logIC50, IC50 values expressed in M. From the text: A) Measurement of Inhibition of DGAT1 Activity by the Present Compounds
The inhibiting activity of the present compounds on DGAT1 activity was screened in a single well procedure assay using DGAT1 comprising membrane preparations and DGAT1 substrate comprising micelles and determining formed radio-active triacylglycerol coming in close proximity of a flashplate surface by radio luminescence.
Said assay is described in full detail in WO2006/067071, the content of which is incorporated herein by reference.
By DGAT1 activity is meant the transfer of coenzyme A activated fatty acids to the 3-position of 1,2-diacylglycerols, thus forming a triglyceride molecule, by enzyme DGAT1.
human DGAT1 (NM012079.2) was cloned into the pFastBac vector, containing translation start, a FLAG-tag at the N-terminus as described in literature and a viral Kozak sequence (AAX) preceding the ATG to improve expression in insect cells. Expression was done as described in literature (Cases, S., Smith, S. J., Zheng, Y., Myers H. M., Lear, S. R., Sande, E., Novak, S., Collins, C., Welch, C. B., Lusis, A. J., Erickson, S. K. and Farese, R. V. (1998) Proc. Natl. Acad. Sci. USA 95, 13018-13023.) using SF9 cells.
72 h transfected SF9 cells were collected by centrifugation (13000 rpm-15 min-4° C.) and lysed in 2×500 ml lysisbuffer (0.1M Sucrose, 50 mM KCl, 40 mM KH2PO4, 30 mM EDTA pH 7.2. Cells were homogenized by cell disruptor. After centrifugation 1380 rpm-15 min-4° C. (SN discarded), pellet was resuspended in 500 ml lysisbuffer and total cell membranes collected by ultracentrifugation at 34000 rpm(100 000 g) for 60 min (4° C.). The collected membranes were resuspended in lysis buffer, divided in aliquots and stored with 10% glycerol at −80° C. until use.
Add 1 ml dioleoyl-sn-glycerol (10 mg/ml) to 10 ml of L-α-phosphatidylcholine (1 mg/ml) and 10 ml of L-α-phosphatidyl-L-serine (1 mg/ml) in a thick glass recipient. Evaporate under nitrogen and put on ice for 15 minutes. Reconstitute in 10 ml Tris/HCl (10 mM, pH 7.4) by sonication on ice. The sonification process consists of sonification cycles of 10 seconds in the sonification bath followed by 10 seconds cool down on ice and repeating this sonification cycle till a homogeneous solution is obtained (takes about 15 minutes). The thus obtained micelles are stored at −20° C. till later use and contain DAG at a final concentration of 1.61 mM.
c) Substrate mix (for 1 384 well plate=3840 μl) • 612 μl micelles stock (51 μM final) • 16.6 μl oleoylCoA 9.7 mM • 23 μl [^3H]-oleoylCoA (49 Ci/mmol, 500 μCi/ml) • 3188.4 μl Tris pH 7.4, 10 mM
d) Enzyme mix (for 1 384 well plate=3520 μl) (5 μg/ml) • Add 11.73 μl of DGAT membrane stock (1500 μg/ml stock) to 3508 μl assay buffer.
e) Stop mix (for 1 384 well plate=7.68 ml) (250 mM) • Add 384 μl of N-ethylmaleimide (5M) to 3.456 ml DMSO 100%, and further dilute 3.84 ml of said solution with 3.84 ml DMSO 10%.
DGAT activity in membrane preparations was assayed in 50 mM Tris-HCl (pH 7.4), 150 mM MgCl2, 1 mM EDTA and 0.2% BSA, containing 50 μM DAG, 32 μg/ml PC/PS and 8.4 μM [^3H]-oleoylCoA (at a specific activity of 30 nCi/well) in a final volume of 50 μl in 384-well format using the red shifted Basic Image FlashPlate™ (Perkin Elmer Cat.No. SMP400).
In detail, 10 μl enzyme mix and 10 μl substrate mix were added to 30 μl of assay buffer, optionally in the presence of 1 μl DMSO (blank and controls) or 1 μl of the compound to be tested. This reaction mixture was incubated for 120 minutes at 37° C. and the enzymatic reaction stopped by adding 20 μl of the stop mix. The plates were sealed and the vesicles allowed to settle overnight at room temperature. Plates were centrifuged for 5 minutes at 1500 rpm and measured in Leadseeker. […]

Turning to `O=C(NCC12CC3CC(CC(C3)C1)C2)c1ccc(N2CCN(C(=O)Nc3c(Cl)cc(CN4CCCC4)cc3Cl)CC2)cc1` [Compound 243], the IC50 was 129 nM.

Molecule `COCCN(C)C(=O)c1cc(Cl)c(NC(=O)N2CCN(c3ccc(NC(=O)CCCc4ccccc4)cc3)CC2)c(Cl)c1` [Compound 291] had a half-maximal inhibitory concentration (IC50) of 10.5 nM. Molecule `CN1CCN(C(=O)c2cc(Cl)c(NC(=O)N3CCN(c4ccc(NC(=O)CCCc5ccccc5)cc4)CC3)c(Cl)c2)CC1` [Compound 290] gave an IC50 of 10.5 nM. For the molecule `O=C(NCc1cccc(N2CCCC2)c1)c1ccc(N2CCN(C(=O)Nc3c(Cl)cc(CCN4CCCC4)cc3Cl)CC2)cc1` [Compound 227], the midpoint of inhibition, the IC50, lay at 11.7 nM. For the molecule `COC(=O)c1cc(Cl)c(NC(=O)N2CCN(c3ccc(NC(=O)CCCc4ccccc4)cc3)CC2)c(Cl)c1` [Compound 47], the IC50 was 135 nM. Take `CC(C(=O)N1CCN(c2ccc(NC(=O)CCCc3ccccc3)cc2)CC1)c1ccc(O)cc1` (centres unmarked) [Compound 347]: the IC50 was 5010 nM. For the molecule `O=C(Cc1ccsc1)Nc1ccc(N2CCN(C(=O)Nc3c(Cl)cccc3Cl)CC2)cc1` [Compound 142], 13.8 nM corresponded to half-maximal inhibition (IC50). To `COC(=O)c1cccc(NC(=O)N2CCN(c3ccc(NC(=O)CCCc4ccccc4)cc3)CC2)c1C` [Compound 72] belongs 490 nM. To `CC(=O)NCCC(=O)Nc1ccc(N2CCN(C(=O)Nc3c(Cl)cccc3Cl)CC2)cc1` [Compound 44] belongs 5130 nM.

Consider `CN(C)C(=O)c1cc(Cl)c(NC(=O)N2CCN(c3ccc(NC(=O)CCCc4ccccc4)cc3)CC2)c(Cl)c1` [Compound 284], for which the IC50 is 8.13 nM. To `CCCCCCCNCC(=O)Nc1ccc(C2CCN(C(=O)Nc3c(Cl)cccc3Cl)CC2)cc1` [Compound 115] belongs 204 nM. To `CN(CC(=O)Nc1ccc(N2CCN(C(=O)Nc3c(Cl)cccc3Cl)CC2)cc1)C(=O)CC(C)(C)C` [Compound 167] belongs 22.4 nM; to `O=C(NCc1cccc(F)c1)c1ccc(N2CCN(C(=O)Cc3c(Cl)cccc3Cl)CC2)cc1` [Compound 247], 155 nM; to `CC(C)C(CC(=O)Nc1ccc(C2CCN(C(=O)Nc3c(Cl)cccc3Cl)CC2)cc1)NC(=O)OC(C)(C)C` (centres unmarked) [Compound 215], 58.9 nM. As for `O=C(CCCc1ccccc1)Nc1ccc(N2CCN(C(=O)C(O)c3cccc(F)c3F)CC2)cc1` (centres unmarked) [Compound 327], the IC50 was 129 nM. To `O=C(CCN(Cc1ccccc1Cl)S(=O)(=O)c1ccccc1[N+](=O)[O-])Nc1ccc(N2CCN(C(=O)Nc3c(Cl)cccc3Cl)CC2)cc1` [Compound 6] belongs 46.8 nM; to `O=C(CCCc1ccccc1)Nc1ccc(N2CCN(C(=O)Nc3c(Cl)cc(C(=O)NCc4ccncc4)cc3Cl)CC2)cc1` [Compound 303], 21.4 nM. The molecule `O=C(CCCc1ccccc1)Nc1ccc(N2CCN(C(=O)Cc3c(Cl)cccc3Cl)CC2)cc1` [Compound 52] gave an IC50 of 35.5 nM. To `Cc1ccc(CC(=O)Nc2ccc(N3CCN(S(=O)(=O)c4ccccc4C)CC3)cc2)c(C)c1` [Compound 17] belongs 2240 nM; to `CC(C)(C)OC(=O)NC1(C(=O)Nc2ccc(C3CCN(C(=O)Nc4c(Cl)cccc4Cl)CC3)cc2)CCCC1` [Compound 216], 34.7 nM.

For `O=C(NCc1cccc(N2CCCC2)c1)c1ccc(N2CCN(C(=O)Cc3c(Cl)cc(CN4CCCC4)cc3Cl)CC2)cc1` [Compound 267], the IC50 is 107 nM. The same measure for `O=C(CCCc1ccccc1)Nc1ccc(N2CCN(C(=O)C(O)c3cccc(O)c3)CC2)cc1` (centres unmarked) [Compound 340]: 3550 nM; for `CN(CC(=O)Nc1ccc(C2CCN(C(=O)Nc3c(Cl)cccc3Cl)CC2)cc1)C(=O)OC(C)(C)C` [Compound 40]: 7.76 nM.

Consider `CCCCCCC(=O)Nc1ccc(N2CCN(C(=O)N(C)c3c(Cl)cccc3Cl)CC2)cc1` [Compound 10], for which the IC50 is 1100 nM. In the case of `CC(C)CC(=O)N(C)CC(=O)Nc1ccc(N2CCN(C(=O)Nc3c(Cl)cccc3Cl)CC2)cc1` [Compound 168], the IC50 was 30.9 nM. The molecule `O=C(CC1CCCCC1)Nc1ccc(C2CCN(C(=O)Nc3c(Cl)cccc3Cl)CC2)cc1` [Compound 124] gave an IC50 of 166 nM. The molecule `COc1ccc(CC(=O)Nc2ccc(N3CCN(C(=O)C(O)c4ccc(CN5CCCC5)cc4Cl)CC3)cc2)cc1` (centres unmarked) [Compound 352] gave an IC50 of 339 nM. In turn, `COCCNC(=O)c1cc(Cl)c(NC(=O)N2CCN(c3ccc(NC(=O)CCCc4ccccc4)cc3)CC2)c(Cl)c1` [Compound 306] gave an IC50 of 26.3 nM. `O=C(CCCc1ccccn1)Nc1ccc(N2CCN(C(=O)Nc3c(Cl)cccc3Cl)CC2)cc1` [Compound 195]: the IC50 is 123 nM.

In turn, `O=C(CCCc1ccccc1)Nc1ccc(N2CCN(C(=O)Nc3c(Cl)cc(C(=O)NCCN4CCOCC4)cc3Cl)CC2)cc1` [Compound 310] showed a half-inhibitory concentration (IC50) of 37.2 nM. The same measure for `COc1ccc(CC(=O)Nc2ccc(C3CCN(C(=O)Nc4c(Cl)cccc4Cl)CC3)cc2)cc1` [Compound 134]: 15.5 nM; for `COCCOCC(=O)N(C)CC(=O)Nc1ccc(N2CCN(C(=O)Nc3c(Cl)cccc3Cl)CC2)cc1` [Compound 163]: 1410 nM; for `CCCC(=O)N(C)CC(=O)Nc1ccc(N2CCN(C(=O)Nc3c(Cl)cccc3Cl)CC2)cc1` [Compound 169]: 53.7 nM.

For `CSCC(NC(=O)OC(C)(C)C)C(=O)Nc1ccc(C2CCN(C(=O)Nc3c(Cl)cccc3Cl)CC2)cc1` (centres unmarked) [Compound 210], half-maximal inhibition (IC50) was put at 155 nM.

`COc1ccc(NC(=O)N2CCN(c3ccc(NC(=O)CCCc4ccccc4)cc3)CC2)c(OC)c1` [Compound 75] gave an IC50 of 603 nM. `CC(C)(C)OC(=O)NCC(=O)Nc1ccc(C2CCN(C(=O)Nc3c(Cl)cccc3Cl)CC2)cc1` [Compound 212] had an IC50 of 115 nM.

Take `Cc1cc(C)cc(N2CCN(CC(=O)Nc3ccc(C4CCN(C(=O)Nc5c(Cl)cccc5Cl)CC4)cc3)CC2)c1` [Compound 105]: the IC50 was 170 nM. `COCCNC(C)c1cc(Cl)c(NC(=O)N2CCN(c3ccc(NC(=O)CCCc4ccccc4)cc3)CC2)c(Cl)c1` (centres unmarked) [Compound 274] showed an IC50 of 3.98 nM. Molecule `O=C(CCN1CCOCC1)Nc1ccc(C2CCN(C(=O)Nc3c(Cl)cccc3Cl)CC2)cc1` [Compound 125] showed an IC50 of 646 nM.

Consider `CC(C)(C)OC(=O)N1CCCC1CC(=O)Nc1ccc(C2CCN(C(=O)Nc3c(Cl)cccc3Cl)CC2)cc1` (centres unmarked) [Compound 39], for which half-maximal inhibition (IC50) required 17 nM. `O=C(CCCc1ccccc1)Nc1ccc(N2CCN(C(=O)Nc3c(Cl)cc(CN4CCOCC4)cc3Cl)CC2)cc1` [Compound 269] had an IC50 of 2.04 nM.

Values taken from patent publication US8981094B2, “Piperidine/piperazine derivatives” (Janssen Pharmaceutica N.V., priority 2007, dated 2015).
